Entries after “also recorded” stand apart in the source; their conditions may differ. Where two headings read alike, the source gives them in different places.

One data set is described as follows: in vitro. Conditions: pig, pH 7.4. The procedure: (§1) The intestine was prepared so the mucous side will be facing the donor compartment.
Data set [1] has as its system porcine large intestine (colon). In words: in vitro. As to conditions: pig, 10 mM, pH 7.4. The method, then:
as §1

In a further data set the test system is porcine stomach (cardia). As to conditions: for concentration in receptor compartment, Propranolol stomach, AVG / concentration in receptor compartment, Propranolol stomach: 10 mM donor solution; for concentration in receptor compartment, Propranolol stomach: single chambers.
The conditions of data set [2]: cited from earlier work.
In a further data set the test system is PHMG poisoning. In words: Acute hepatitis caused by alcohol substitute PHMG in rats. As to conditions: single intraperitoneal injection, 50 mg/100 g. The procedure:
The experiment was carried out on 25 male white outbred rats weighing 200-300 g, in accordance with the recommendations of the international ethics committees on the humane treatment of laboratory animals (EU Council Directive 86/609 EEC dated Nov. 24, 1986). To create an experimental model, an aqueous solution of PHMG was used, which was administered intraperitoneally at a dose of 50 mg/100 g.

Procedure for porcine small intestine: Porcine Small Intestinal (SI) Permeability Procedure • Full thickness pig small intestinal delivered to Solubest on the day of the experiment. • Experiments were carried out on 6 slices 2 cm*2 cm with full thickness pig small intestinal sample • The intestinal was prepared so brush border side is facing the donor compartment. • According to Solubest protocol the excess mucus and connective tissue were removed • The receiver compartment contains 0.01M Phosphate Buffer pH 7.4 (PBS). • Receiver's samples were withdrawn at 5 time points (30 min, 60 min, 120 min, 4 hours and 6 hours). • Water pump was set to temp 38±1° C. in order to keep fixed temp in receptor department at 37±1° C.

In the case of `CC(C)NCC(O)COc1cccc2ccccc12` (centres unmarked) [Propranolol], in the data set “in vitro”, the recovery at 0 min, 10 mM was 0%. Moreover, in the data set “in vitro”, the recovery at 30 min, 10 mM worked out at 0.16%. This compound also displayed a recovery at 60 min, 10 mM in the data set “in vitro” of 0.4%. In “in vitro”, this compound registered a recovery at 120 min, 10 mM of 1.04%. This compound displayed a recovery at 240 min, 10 mM in “in vitro” of 2.36%. For the same compound, the recovery at 360 min, 10 mM in the data set “in vitro” came to 3.43%. For the same compound, the recovery at 720 min, 10 mM in the data set “in vitro” worked out at 6.47%. Also, the “concentration in receptor comp, large intestine, AVG” value amounted to 0 ng/mL in data set [1] (0 min); 2000 ng/mL in data set [1] (30 min); 5000 ng/mL in data set [1] (60 min); 14000 ng/mL in data set [1] (120 min); 31000 ng/mL in data set [1] (240 min); 45000 ng/mL in data set [1] (360 min). In addition, in data set [1] (720 min), the “concentration in receptor comp, large intestine, AVG” value came to 84000 ng/mL. The “concentration in receptor compartment, large intestine” value in data set [1] (0 min) was found to be 0 ng/mL. Besides, the “mg in receptor comp” value in data set [1] (0 min) is on record as 0.000 mg; in data set [1] (30 min), 0.010 mg; in data set [1] (60 min) it was 0.026 mg; in data set [1] (120 min) it was 0.068 mg; in data set [1] (240 min), 0.154 mg; in data set [1] (360 min) it was 0.223 mg. In data set [1] (720 min), the “mg in receptor comp” value came out at 0.421 mg. The “permeation through stomach tissue, in words” value with porcine stomach (cardia) is “almost no permeation; also recorded: poorly penetrate through the stomach tissue”. The “concentration in receptor compartment, Propranolol stomach, AVG” value with porcine stomach (cardia) (0 min), in the data set with porcine stomach (cardia) (30 min), in the data set on porcine stomach (cardia) (60 min), in the data set with porcine stomach (cardia) (120 min), in the data set with porcine stomach (cardia) (240 min) and in the data set on porcine stomach (cardia) (420 min) was 0 ng/mL throughout. Besides, the “concentration in receptor compartment, Propranolol stomach” value in the data set on porcine stomach (cardia) (0 min), with porcine stomach (cardia) (30 min), in the data set with porcine stomach (cardia) (60 min), with porcine stomach (cardia) (120 min), with porcine stomach (cardia) (240 min) and in the data set on porcine stomach (cardia) (420 min) was 0 ng/mL throughout. Moreover, the “permeability through small intestine tissue, in words” value is recorded as “well adsorbed” in the data set on porcine small intestine and “permeates well” in the data set with porcine small intestine (listed as propranolol). The “concentration in receptor compartment, small intestine, AVG” value with porcine small intestine (10 mM donor solution, 0 min) worked out at 0 ng/mL; with porcine small intestine (10 mM donor solution, 30 min) it was 1000 ng/mL; with porcine small intestine (10 mM donor solution, 60 min) it was 5000 ng/mL; in the data set on porcine small intestine (10 mM donor solution, 120 min), 13000 ng/mL; in the data set with porcine small intestine (10 mM donor solution, 240 min) it was 33000 ng/mL; with porcine small intestine (10 mM donor solution, 360 min) it was 55000 ng/mL. Moreover, the “concentration in receptor compartment, small intestine” value in the data set on porcine small intestine (10 mM donor solution, 0 min, single chambers) came out at 0 ng/mL. For the same compound, the “time of peak plasma levels” value in data set [2] (after ingestion) was 1 to 3 h. In data set [2] (high solubility, high permeability), the BSC classification result is “class 1”.

On to polyhexamethyleneguanidine [PHMG], for which the mortality result with PHMG poisoning is “about 70%”.

The values above are taken from patent US20210379063A1, “ORAL AMINODIHYDROPHTHALAZINEDIONE COMPOSITIONS AND THEIR USE IN THE TREATMENT OF NON-VIRAL HEPATITIS” (Immunopharma Plus D.O.O., priority 2018, published 2021).
